US20240415789A1, “CYCLOBENZAPRINE FOR TREATMENT OR PREVENTION OF SEXUAL DYSFUNCTION ASSOCIATED WITH MENTAL HEALTH CONDITIONS IN FEMALE PATIENTS” (Tonix Pharmaceuticals Holding Corp., priority 2021, published 2024)
Where a name gives a salt, the structure may show the parent alone. Read-outs that look alike come from different tables or passages of the source.

Experiments:
[1] = system: female sexual functioning in females with military-related PTSD; settings: military Phase 3, females 5.6 mg (N=8) vs placebo (N=16), 12 weeks
Procedure: (§1) Methods: In this 12-week, multicenter, adaptive design, randomized controlled fixed-dose trial, 5.6 mg cyclobenzaprine HCl (2×2.8 mg sublingual tablets, comprising a 75%±2% cyclobenzaprine HCl and 25%±2% mannitol eutectic and a potassium phosphate dibasic anhydrous basifying agent) taken daily at bedtime was compared to placebo for the treatment of PTSD at 45 U.S. sites. […] A pre-planned interim analysis was conducted when about half the originally planned sample of 550 participants had outcome data.
(§2) The modified intention-to-treat (mITT) population, which included all randomized subjects with at least one post-baseline CAPS-5, included 125 participants treated with 5.6 mg dose per day the above cyclobenzaprine HCl sublingual formulation and 127 participants on placebo were studied.
Sexual functioning was measured by Changes in Sexual Functioning Questionnaire short-form (CSFQ-14) which is a validated 14-item measure (Keller, McGarvey, Clayton, 2006). Parallel gender-specific versions are administered to males (CSFQ-14-M) and females (CSFQ-14-F), and each sex was analyzed separately. In addition to a total sexual functioning score, there are five sub-scales: desire/frequency, desire/interest, arousal/excitement, orgasm/complete, and pleasure. The scales range from (never) to (every day) and higher scores reflect greater levels of sexual functioning.
(§3) In the Phase 3 study in predominantly civilian PTSD, the inclusion criteria were broadened to include civilian participants with current PTSD, as determined by the CAPS-5. Accordingly, this study included 94% civilian trauma with a minimum baseline severity score of ≥33 on the CAPS-5. […] Thus, analyses were conducted on the interim analysis sample of 252 participants in the military Phase 3 study (89% male [n=225 M; n=27 F]; 100% military PTSD) and […] subjects in the civilian Phase 3 study (79% female [n=129 F; n=34 M]; 94% civilian PTSD).
(§4) The CSFQ-14 is a validated 14-item measure (Keller, McGarvey, Clayton, 2006) that has male and female versions which were analyzed separately. In addition to a total sexual functioning score, there are five sub-scales: desire/frequency, desire/interest, arousal/excitement, orgasm/complete, and pleasure. The items range on 5-point Likert scale from (never) to (every day). Higher scores reflect greater levels of sexual functioning.

[2] = Phase 2 study in military-related PTSD, drug and placebo groups
Procedure: (§5) Three randomized, placebo-controlled and double-blind clinical trials of the above described 5.6 mg cyclobenzaprine HCl sublingual formulation (2×2.8 mg tablets) were performed, a Phase 2 study and a Phase 3 study in military-related PTSD, and a Phase 3 study in predominantly civilian PTSD. […] The present retrospective analysis examined the activity of the cyclobenzaprine HCl sublingual formulation on the Changes in Sexual Functioning Questionnaire short form (CSFQ-14) in the two Phase 3 studies.

[3] = system: PTSD; settings: all three trials (Phase 2, two Phase 3), 5.6 mg dose
Procedure: as §5

[4] = both Phase 3 studies
Procedure: as §5, §3

[5] = Procedure: as §1, §2
[6] = system: military-related PTSD; settings: female subgroup (10 active, 17 placebo), 5.6 mg per day sublingual, after 12 weeks of treatment
Procedure: as §1, §2

[7] = system: female sexual functioning in females with predominantly civilian PTSD; settings: civilian Phase 3, female completers 5.6 mg (N=58) vs placebo (N=55), 12 weeks
Procedure: as §5, §3, §4

## CN(C)CCC=C1c2ccccc2C=Cc2ccccc21 [cyclobenzaprine HCl]
[1]
  CSFQ-14-F arousal/excitement subscale, Hedges' g vs placebo: 0.55
  CSFQ-14-F desire/frequency subscale, Hedges' g vs placebo: 0.46
  CSFQ-14-F desire/interest subscale, Hedges' g vs placebo: 0.63
  CSFQ-14-F orgasm/completion scale, effect vs placebo: No effect
  CSFQ-14-F pleasure subscale, Hedges' g vs placebo: 0.54
  CSFQ-14-F total score, Hedges' g effect size vs placebo: 0.49
[2]
  rates of adverse events related to sexual function: very low rates
[3]
  activity on clinician- and patient-rated global PTSD symptoms (CGI and PGIC): encouraging activity
[4]
  severity of oral hypoaesthesia: never rated as severe
[4]; 5.6 mg sublingual
  most frequent adverse event: oral hypoaesthesia
[4]; generally transient
  duration of oral hypoaesthesia post administration: < 60 min
[4]; also never rated as severe
  most common systemic adverse event: somnolence
[5]; military Phase 3
  severity of oral hypoaesthesia: never rated as severe
[5]; military Phase 3, 5.6 mg dose (placebo: two)
  participants with at least one AE leading to study discontinuation: 8 participants
[5]; military Phase 3, 5.6 mg sublingual daily at bedtime
  most frequent adverse event: oral hypoaesthesia
[5]; military Phase 3, generally transient
  duration of oral hypoaesthesia post administration: < 60 min
[5]; military Phase 3, also never rated as severe
  most common systemic adverse event: somnolence
[6]
  observed mean improvement in CAPS-5 over placebo: −9.1 units
[7]
  CSFQ-14-F arousal/excitement subscale, Hedges' g vs placebo: 0.33
  CSFQ-14-F desire/frequency subscale, Hedges' g vs placebo: 0.21
  CSFQ-14-F desire/interest subscale, Hedges' g vs placebo: 0.23
  CSFQ-14-F orgasm/completion subscale, Hedges' g vs placebo: 0.29
  CSFQ-14-F pleasure subscale, Hedges' g vs placebo: 0.19
[7]; p=0.07
  CSFQ-14-F total score, Hedges' g effect size vs placebo: 0.37
